# Data as given in paper PMC3075257, “Evaluation of Multidrug Efflux Pump Inhibitors by a New Method Using Microfluidic Channels” (PLoS ONE, 2011).
# Columns and labels:
# Assay type in all cases: cell-based
# AcrAB-TolC = target: T1, AcrAB-TolC (Escherichia coli, UniProt P31224); test: FDG influx and hydrolysis in wild-type against ΔacrB cells, microfluidic channel fluorescence microscopy; conditions: 100 µg/ml FDG, LB, lactose-induced β-galactosidase, 15 min, 37°C
# T1 construct: gene acrB; native chromosomal pump in intact cells, judged against ΔacrB and ΔtolC deletion mutants; with Multidrug efflux pump subunit AcrA; Outer membrane protein TolC
# MexAB-OprM = target: T2, MexAB-OprM (Pseudomonas aeruginosa, UniProt P52002); test: fluorescein efflux from E. coli cells loaded with FDG, microfluidic channel fluorescence microscopy; conditions: ΔBC/pABM against vector control ΔBC/pV, 100 µg/ml FDG, LB, 15 min, 37°C; exported dye formed in the cell from FDG
# T2 construct: gene mexB; full-length tripartite RND efflux pump from plasmid pMMB67HE::mexAB-oprM in E. coli MG1655 ΔacrBΔtolC, IPTG-induced; with Multidrug resistance protein MexA; Outer membrane protein OprM
# T2 sequence (Q51487 18-485): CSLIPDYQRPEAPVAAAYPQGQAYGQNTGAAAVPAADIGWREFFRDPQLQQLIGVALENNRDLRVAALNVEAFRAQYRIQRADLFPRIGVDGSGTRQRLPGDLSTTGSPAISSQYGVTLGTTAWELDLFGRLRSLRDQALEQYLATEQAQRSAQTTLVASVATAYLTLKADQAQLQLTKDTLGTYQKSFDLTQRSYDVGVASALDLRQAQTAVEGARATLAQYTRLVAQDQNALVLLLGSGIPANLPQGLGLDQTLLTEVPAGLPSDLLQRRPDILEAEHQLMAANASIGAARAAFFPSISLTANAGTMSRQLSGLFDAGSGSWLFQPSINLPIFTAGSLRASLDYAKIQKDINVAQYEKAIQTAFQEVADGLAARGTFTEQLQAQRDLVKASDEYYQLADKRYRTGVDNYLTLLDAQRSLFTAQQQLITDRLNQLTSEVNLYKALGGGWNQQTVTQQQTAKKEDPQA
# T2 sequence (P52477 24-383, further chain): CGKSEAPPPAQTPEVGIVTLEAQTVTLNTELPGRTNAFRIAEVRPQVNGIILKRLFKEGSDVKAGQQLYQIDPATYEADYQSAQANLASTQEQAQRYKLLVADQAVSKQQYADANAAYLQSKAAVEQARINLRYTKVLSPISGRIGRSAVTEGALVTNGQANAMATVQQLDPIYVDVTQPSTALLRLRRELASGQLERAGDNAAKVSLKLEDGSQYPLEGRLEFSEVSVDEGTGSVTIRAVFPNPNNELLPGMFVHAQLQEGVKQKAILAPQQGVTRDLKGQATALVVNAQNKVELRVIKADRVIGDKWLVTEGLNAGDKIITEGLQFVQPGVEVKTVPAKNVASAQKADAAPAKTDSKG
# T2 sequence (P52002 whole entry): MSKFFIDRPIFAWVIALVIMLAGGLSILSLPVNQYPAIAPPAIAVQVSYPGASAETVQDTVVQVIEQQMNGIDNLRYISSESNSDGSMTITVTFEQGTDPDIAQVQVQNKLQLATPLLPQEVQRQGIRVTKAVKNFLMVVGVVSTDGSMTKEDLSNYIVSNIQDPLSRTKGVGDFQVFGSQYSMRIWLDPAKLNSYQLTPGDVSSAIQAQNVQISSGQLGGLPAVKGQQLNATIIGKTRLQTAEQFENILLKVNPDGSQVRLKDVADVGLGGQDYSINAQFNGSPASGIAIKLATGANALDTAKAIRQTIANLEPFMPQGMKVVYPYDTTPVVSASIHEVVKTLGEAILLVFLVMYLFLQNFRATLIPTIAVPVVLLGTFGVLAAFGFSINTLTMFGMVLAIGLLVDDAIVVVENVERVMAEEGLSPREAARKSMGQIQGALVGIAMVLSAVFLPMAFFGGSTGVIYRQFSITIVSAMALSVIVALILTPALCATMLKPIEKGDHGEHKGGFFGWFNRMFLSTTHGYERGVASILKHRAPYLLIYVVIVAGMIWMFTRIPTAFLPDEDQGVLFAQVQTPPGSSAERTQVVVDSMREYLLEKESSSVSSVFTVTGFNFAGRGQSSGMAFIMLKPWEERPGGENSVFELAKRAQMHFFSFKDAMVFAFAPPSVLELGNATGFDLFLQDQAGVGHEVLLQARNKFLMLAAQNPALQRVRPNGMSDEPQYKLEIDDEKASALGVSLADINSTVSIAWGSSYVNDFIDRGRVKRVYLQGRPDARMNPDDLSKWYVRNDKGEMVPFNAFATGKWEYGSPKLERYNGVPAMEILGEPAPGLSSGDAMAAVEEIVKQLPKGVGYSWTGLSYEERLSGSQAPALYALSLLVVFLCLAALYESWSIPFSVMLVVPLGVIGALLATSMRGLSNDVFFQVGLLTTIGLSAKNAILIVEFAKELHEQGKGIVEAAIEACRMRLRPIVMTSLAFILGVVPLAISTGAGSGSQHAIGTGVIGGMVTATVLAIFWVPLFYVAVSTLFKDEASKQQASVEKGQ
# MexXY-OprM = target: T3, MexXY-OprM (Pseudomonas aeruginosa, UniProt G3XCW2); test: as above; conditions: ΔBC/pXYM against vector control ΔBC/pV, 100 µg/ml FDG, LB, 15 min, 37°C; exported dye formed in the cell from FDG
# T3 construct: gene mexY; full-length tripartite RND efflux pump from plasmid pMMB67HE::mexXY-oprM in E. coli MG1655 ΔacrBΔtolC, IPTG-induced; with Multidrug efflux RND transporter periplasmic adaptor subunit MexX; Outer membrane protein OprM
# T3 sequence (G3XCW2 entry or part of it): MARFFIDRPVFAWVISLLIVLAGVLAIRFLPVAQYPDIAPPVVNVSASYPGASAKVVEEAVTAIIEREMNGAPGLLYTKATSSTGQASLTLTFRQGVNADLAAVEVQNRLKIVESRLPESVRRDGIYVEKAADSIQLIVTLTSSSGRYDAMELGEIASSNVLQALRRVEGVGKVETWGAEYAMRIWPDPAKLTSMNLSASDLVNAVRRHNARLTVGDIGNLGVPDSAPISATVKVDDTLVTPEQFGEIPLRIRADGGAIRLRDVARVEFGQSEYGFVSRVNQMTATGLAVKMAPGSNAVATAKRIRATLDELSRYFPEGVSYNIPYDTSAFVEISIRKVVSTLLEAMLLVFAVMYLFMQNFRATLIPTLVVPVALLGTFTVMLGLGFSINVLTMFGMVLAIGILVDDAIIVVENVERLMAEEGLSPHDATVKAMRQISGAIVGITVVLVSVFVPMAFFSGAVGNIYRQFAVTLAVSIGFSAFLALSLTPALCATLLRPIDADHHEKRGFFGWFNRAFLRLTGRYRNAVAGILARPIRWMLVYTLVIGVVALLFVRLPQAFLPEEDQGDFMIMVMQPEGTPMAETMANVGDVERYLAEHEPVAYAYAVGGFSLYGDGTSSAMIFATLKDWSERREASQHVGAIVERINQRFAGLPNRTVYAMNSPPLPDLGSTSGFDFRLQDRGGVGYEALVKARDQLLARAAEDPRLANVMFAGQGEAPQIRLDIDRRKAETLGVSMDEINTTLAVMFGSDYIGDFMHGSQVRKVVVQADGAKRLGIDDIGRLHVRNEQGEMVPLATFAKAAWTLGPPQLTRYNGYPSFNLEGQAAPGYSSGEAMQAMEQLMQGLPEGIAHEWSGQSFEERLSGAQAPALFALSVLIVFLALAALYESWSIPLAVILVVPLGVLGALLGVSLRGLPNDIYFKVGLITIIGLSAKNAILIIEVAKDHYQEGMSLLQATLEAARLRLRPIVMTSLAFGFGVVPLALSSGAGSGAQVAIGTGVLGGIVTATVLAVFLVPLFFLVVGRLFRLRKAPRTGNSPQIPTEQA
# T3 sequence (G3XD21 entry or part of it, further chain): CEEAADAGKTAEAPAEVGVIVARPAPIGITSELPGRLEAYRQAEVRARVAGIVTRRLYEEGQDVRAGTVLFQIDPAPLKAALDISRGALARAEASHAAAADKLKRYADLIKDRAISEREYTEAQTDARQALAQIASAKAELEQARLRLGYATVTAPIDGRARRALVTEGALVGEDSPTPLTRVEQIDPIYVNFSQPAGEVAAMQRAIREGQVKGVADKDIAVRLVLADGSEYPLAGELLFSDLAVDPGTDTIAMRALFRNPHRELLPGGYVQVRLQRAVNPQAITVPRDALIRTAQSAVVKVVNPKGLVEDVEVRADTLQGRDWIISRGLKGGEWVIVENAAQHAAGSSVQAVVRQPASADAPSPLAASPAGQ
# T3 sequence (Q51487 18-485, further chain): as the sequence (Q51487 18-485) above
smiles,measurement,setting,value
O=C1OC2(c3ccc(O[C@@H]4O[C@H](CO)[C@H](O)[C@H](O)[C@H]4O)cc3Oc3cc(O[C@@H]4O[C@H](CO)[C@H](O)[C@H](O)[C@H]4O)ccc32)c2ccccc21 [Fluorescein-di-β-D-galactopyranoside],"FDG influx and hydrolysis in wild-type against ΔacrB cells, microfluidic channel",AcrAB-TolC,AcrAB-TolC and the analogous RND pumps effectively prevented FDG influx in E. coli wild-type cells
O=C1OC2(c3ccc(O)cc3Oc3cc(O)ccc32)c2ccccc21 [fluorescein],"fluorescein efflux from E. coli cells loaded with FDG, microfluidic channel fluo",MexAB-OprM,The fluorescent medium was observed in ΔBC carrying pABM or pXYM
same,"fluorescein efflux from E. coli cells loaded with FDG, microfluidic channel fluo",MexXY-OprM,The fluorescent medium was observed in ΔBC carrying pABM or pXYM
